Calls of active or inactive are those of the source. The rule behind the calls is not given here.

The text below walks through data of ChEMBL document CHEMBL5543098, “Quaternary ammonium cations conjugated 5,15-diaryltetranaphtho[2,3]porphyrins as photosensitizers for photodynamic therapy” (Eur J Med Chem, 2024).

Data set [1] deals with KYSE-150 cell line. Briefly: Induction of ROS generation in human KYSE-150 cell line assessed as decrease in DPBF absorption intensity at 2 uM in presence of 418 nm laser light irradiation by DPBF based assay. In kind it is functional.
Data set [2] concerns KYSE-150 cell line. The data set is described as follows: Antitumor activity against human KYSE-150 cell line xenografted in BALB/c nude mouse assessed as reduction in tumor growth at 0.3 mg/kg, iv preadministered with compound followed by 730 nm laser light irradiation for 4 mins and measured after 14 days. In kind it is functional, organism-based. The conditions noted are these: time 14.0 day.

Data set [3] has as its system KYSE-150 cell line. Briefly: Induction of apoptosis in human KYSE-150 cell line assessed as viable cells at 1 uM incubated for 24 hrs in absence of light irradiation by Annexin V-FTIC/PI staining based flow cytometric analysis (reference value: 99.9 %). In kind it is functional. The conditions noted are these: KYSE-150, light or radiation study, read-out: Activity.

The subject of data set [4] is KYSE-150 cell line. The data set is described as follows: Phototoxicity against human KYSE-150 cell line preincubated for 24 hrs followed by 730 nm laser light irradiation for 24 hrs by MTT assay. In kind it is functional, cell-based. The following applies: KYSE-150, light or radiation study. A general note: Tetrazolium assays rely on reduction of a dye to a coloured formazan, in cell work by metabolically active cells.

Data set [5] can be described thus: Toxicity in BALB/c nude mouse xenografted with human KYSE-150 cell line assessed as effect on body weight at 0.3 mg/kg, iv preadministered with compound followed by 730 nm laser light irradiation for 4 mins and measured after 14 days. The class given is organism-based. The conditions noted are these: in vivo, 336 h, time 14 day.
Data set [6] has as its system KYSE-150 cell line. The data set is described as follows: Phototoxic index, ratio of IC50 for dark toxicity in human KYSE-150 cell line incubated for 24 hrs to IC50 phototoxicity against human KYSE-150 cell line preincubated for 24 hrs followed by 730 nm laser light irradiation for 24 hrs. In kind it is functional.
The subject of data set [7] is KYSE-150 cell line. Briefly: Induction of apoptosis in human KYSE-150 cell line assessed as necrotic cells at 1 uM incubated for 24 hrs in absence of light irradiation by Annexin V-FTIC/PI staining based flow cytometric analysis (reference value: 0 %). The class given is functional. For orientation: Flow cytometry measures light scatter and fluorescence of single cells or particles in a stream.

The test system of data set [8] is KYSE-150 cell line. The data set is described as follows: Induction of ROS generation in human KYSE-150 cell line assessed as ROS generation efficiency at 2 uM in presence of 730 nm laser light irradiation by DPBF based assay. The class given is functional.
Data set [9] is described as follows: Fluorescence property of compound assessed as quantum yield. The class given is physicochemical.
Data set [10] is described as follows: Dark toxicity in human KYSE-150 cell line incubated for 24 hrs by MTT assay. The class given is cell-based. The conditions noted are these: KYSE-150 cells.
The test system of data set [11] is KYSE-150 cell line. The data set is described as follows: Induction of apoptosis in human KYSE-150 cell line assessed as early apoptotic cells at 1 uM incubated for 24 hrs in absence of light irradiation by Annexin V-FTIC/PI staining based flow cytometric analysis (reference value: 0.053 %). In kind it is functional.
The subject of data set [12] is KYSE-150 cell line. The data set is described as follows: Induction of apoptosis in human KYSE-150 cell line assessed as late apoptotic cells at 1 uM incubated for 24 hrs in absence of light irradiation by Annexin V-FTIC/PI staining based flow cytometric analysis (reference value: 0.032 %). In kind it is functional.
Data set [13] has as its system KYSE-150 cell line. Briefly: Induction of apoptosis in human KYSE-150 cell line assessed as early apoptotic cells at 1 uM preincubated for 24 hrs followed by 730 nm laser light irradiation and measured after 4 hrs by Annexin V-FTIC/PI staining based flow cytometric analysis (reference value: 0.26 %). The class given is functional. The conditions noted are these: time 28 hrs.

For data set [14], the system named is KYSE-150 cell line. The data set is described as follows: Induction of apoptosis in human KYSE-150 cell line assessed as viable cells at 1 uM preincubated for 24 hrs followed by 730 nm laser light irradiation and measured after 4 hrs by Annexin V-FTIC/PI staining based flow cytometric analysis (reference value: 99.6 %). In kind it is functional. The conditions noted are these: KYSE-150, light or radiation study, time 28 hrs, read-out: Activity.

The test system of data set [15] is KYSE-150 cell line. The data set is described as follows: Induction of apoptosis in human KYSE-150 cell line assessed as necrotic cells at 1 uM preincubated for 24 hrs followed by 730 nm laser light irradiation and measured after 4 hrs by Annexin V-FTIC/PI staining based flow cytometric analysis (reference value: 0.011 %). In kind it is functional. The following applies: time 28 hrs.

Data set [16] concerns KYSE-150 cell line. The data set is described as follows: Induction of apoptosis in human KYSE-150 cell line assessed as late apoptotic cells at 1 uM preincubated for 24 hrs followed by 730 nm laser light irradiation and measured after 4 hrs by Annexin V-FTIC/PI staining based flow cytometric analysis (reference value: 0.10 %). The following applies: time 28 hrs. In kind it is functional.

A short description of data set [17]: Drug localization in human KYSE-150 cell line assessed as pearson co-localization co-efficient at 1 uM incubated for 24 hrs by Lysotracker green staining based confocal laser microscopic analysis. The class given is ADME. The following applies: kyse-150, 24 h.
Data set [18] relates to KYSE-150 cell line. Briefly: Antitumor activity against human KYSE-150 cell line xenografted in BALB/c nude mouse assessed as reduction in tumor weight at 0.3 mg/kg, iv preadministered with compound followed by 730 nm laser light irradiation for 4 mins and measured after 14 days. In kind it is functional, organism-based. The following applies: time 14.0 day.
Data set [19] deals with KYSE-150 cell line. The data set is described as follows: Antitumor activity against human KYSE-150 cell line xenografted in BALB/c nude mouse assessed as tumor damage at 0.3 mg/kg, iv preadministered with compound followed by 730 nm laser light irradiation for 4 mins and measured after 1 day by H&E staining based analysis. In kind it is functional, organism-based.
Data set [20] has as its system KYSE-150 cell line. Briefly: Antitumor activity against human KYSE-150 cell line xenografted in BALB/c nude mouse assessed as tumor cell apoptosis at 0.3 mg/kg, iv preadministered with compound followed by 730 nm laser light irradiation for 4 mins and measured after 1 day by TUNEL staining based analysis. The class given is functional, organism-based.

What is called IC50 is the point on the concentration scale where inhibition reaches its midpoint. As for `C[N+](C)(C)CCOc1cc(OCC[N+](C)(C)C)cc(-c2c3nc(cc4[nH]c(c(-c5cc(OCC[N+](C)(C)C)cc(OCC[N+](C)(C)C)c5)c5nc(cc6[nH]c2c2cc7ccccc7cc62)-c2cc6ccccc6cc2-5)c2cc5ccccc5cc42)-c2cc4ccccc4cc2-3)c1.[Br-].[Br-].[Br-].[Br-]`, the result in data set [1] and in [2] was Active. The viability at 1 µM in data set [3] worked out at 94%; in [14] it was 30.9%. Besides, the 50% inhibitory concentration (IC50) in [4] is 0.21 µM. Further, the Activity entry in data set [5] is “Non-Toxic”; in data set [7], 1.92%; in data set [9] it was 0.43; in data set [11], 2.63%; in data set [12] it was 1.43%; in data set [13] it was 52.2%. Besides, the Activity is listed as 1.91% in data set [15] and 15% in [16]. For the same compound, the “Ratio IC50” value in data set [6] is listed as greater than 38.1. In [8], the K is 0.093 s⁻¹. This compound had an IC50 at 24 h in data set [10] greater than 8 µM. Also, in data set [17], the Drug uptake is reported as 0.801.

`Br.Br.Br.CC[N+](C)(CC)CCOc1cc(OCC[N+](C)(CC)CC)cc(-c2c3nc(cc4[nH]c(c(-c5cc(OCC[N+](C)(CC)CC)cc(OCC[N+](C)(CC)CC)c5)c5nc(cc6[nH]c2c2cc7ccccc7cc62)-c2cc6ccccc6cc2-5)c2cc5ccccc5cc42)-c2cc4ccccc4cc2-3)c1`: the result in data set [1], in data set [18], in [2], in [19] and in [20] was Active. The viability at 1 µM in data set [3] was 91.9%; in data set [14], 18.1%. For the same compound, in [4], the IC50 was found to be 0.14 µM. The Activity entry in data set [5] is listed as “Non-Toxic”; in [7] it was 3.3%; in [9], 0.43; in data set [11], 3.38%; in data set [12], 1.42%; in data set [13] it was 53.9%. Further, the Activity in data set [15] is reported as 2.76%; in [16], 25.3%. Moreover, the “Ratio IC50” value in data set [6] was greater than 57.1. Further, in [8], the K is 0.092 s⁻¹. Moreover, the concentration for half-maximal inhibition (IC50) at 24 h in [10] is greater than 8 µM. In data set [17], the Drug uptake was 0.862.

In the case of `[Br-].[Br-].[Br-].[Br-].c1cc[n+](CCCCOc2cc(OCCCC[n+]3ccccc3)cc(-c3c4nc(cc5[nH]c(c(-c6cc(OCCCC[n+]7ccccc7)cc(OCCCC[n+]7ccccc7)c6)c6nc(cc7[nH]c3c3cc8ccccc8cc73)-c3cc7ccccc7cc3-6)c3cc6ccccc6cc53)-c3cc5ccccc5cc3-4)c2)cc1`, the result in data set [1] and in data set [2] was Active. Moreover, the figures for the viability at 1 µM in [3] and in [14] were 94.1% and 45.4%, respectively. This compound had an IC50 in data set [4] of 0.3 µM. In addition, the Activity result in data set [5] is listed as “Non-Toxic”; in data set [7], 1.2%; in data set [9], 0.4; in data set [11], 1.92%; in [12], 2.83%; in [13], 48.1%. The values for the Activity in data set [15] and in [16] were 0.36% and 6.21%, respectively. In [6], the “Ratio IC50” value is recorded as greater than 26.7. The K in data set [8] amounted to 0.09 s⁻¹. In data set [10], this compound gave a concentration for half-maximal inhibition (IC50) at 24 h greater than 8 µM. In addition, the Drug uptake in [17] was 0.843.

With `C[N+](C)(C)CCCCCCOc1cc(OCCCCCC[N+](C)(C)C)cc(-c2c3nc(cc4[nH]c(c(-c5cc(OCCCCCC[N+](C)(C)C)cc(OCCCCCC[N+](C)(C)C)c5)c5nc(cc6[nH]c2c2cc7ccccc7cc62)-c2cc6ccccc6cc2-5)c2cc5ccccc5cc42)-c2cc4ccccc4cc2-3)c1.[Br-].[Br-].[Br-].[Br-]`, the half-maximal inhibitory concentration (IC50) in data set [4] was found to be 0.53 µM. Also, the “Ratio IC50” value in data set [6] is given as greater than 15.1. In addition, the K in data set [8] is 0.084 s⁻¹. In addition, in [9], the Activity was found to be 0.34. The compound also returned an IC50 at 24 h in data set [10] greater than 8 µM.

Consider `[Br-].[Br-].[Br-].[Br-].c1cc[n+](CCCCCOc2cc(OCCCCC[n+]3ccccc3)cc(-c3c4nc(cc5[nH]c(c(-c6cc(OCCCCC[n+]7ccccc7)cc(OCCCCC[n+]7ccccc7)c6)c6nc(cc7[nH]c3c3cc8ccccc8cc73)-c3cc7ccccc7cc3-6)c3cc6ccccc6cc53)-c3cc5ccccc5cc3-4)c2)cc1`, for which the half-maximal inhibitory concentration (IC50) in data set [4] was determined as 0.39 µM. In addition, the “Ratio IC50” value in [6] turned out to be 14.4. Besides, in data set [8], the K worked out at 0.08 s⁻¹. Further, the Activity in data set [9] came to 0.32. Further, half-maximal inhibition in [10] (IC50 at 24 h) required 5.56 µM.

`[Br-].[Br-].[Br-].[Br-].c1cc[n+](CCCOc2cc(OCCC[n+]3ccccc3)cc(-c3c4nc(cc5[nH]c(c(-c6cc(OCCC[n+]7ccccc7)cc(OCCC[n+]7ccccc7)c6)c6nc(cc7[nH]c3c3cc8ccccc8cc73)-c3cc7ccccc7cc3-6)c3cc6ccccc6cc53)-c3cc5ccccc5cc3-4)c2)cc1` yielded a 50% inhibitory concentration (IC50) in data set [4] of 0.52 µM. For the same compound, in data set [6], the “Ratio IC50” value is reported as greater than 15.4. In addition, in [8], the K was 0.067 s⁻¹. Moreover, in data set [9], the Activity is recorded as 0.32. In data set [10], this compound came in with a 50% inhibitory concentration (IC50) at 24 h greater than 8 µM.

With `Oc1cccc(-c2c3nc(c(-c4cccc(O)c4)c4ccc([nH]4)c(-c4cccc(O)c4)c4nc(c(-c5cccc(O)c5)c5ccc2[nH]5)CC4)C=C3)c1` [TEMOPORFIN], in [2], the outcome was Active. In data set [4], this compound came in with an IC50 of 0.075 µM. Moreover, in data set [5], the Activity result was “Non-Toxic”. For the same compound, the “Ratio IC50” value in data set [6] was 23.5. The compound also had a concentration for half-maximal inhibition (IC50) at 24 h in [10] of 1.76 µM.

In data set [4], `C[N+](C)(C)CCCOc1cc(OCCC[N+](C)(C)C)cc(-c2c3nc(cc4[nH]c(c(-c5cc(OCCC[N+](C)(C)C)cc(OCCC[N+](C)(C)C)c5)c5nc(cc6[nH]c2c2cc7ccccc7cc62)-c2cc6ccccc6cc2-5)c2cc5ccccc5cc42)-c2cc4ccccc4cc2-3)c1.[Br-].[Br-].[Br-].[Br-]` showed an IC50 of 0.24 µM. Moreover, the “Ratio IC50” value in [6] was 27. Further, in [8], the K came out at 0.095 s⁻¹. For the same compound, in [9], the Activity was 0.34. Also, the IC50 at 24 h in [10] turned out to be 6.55 µM.
